According to patent US11130778B2, “CD73 inhibitors” (ORIC Pharmaceuticals, Inc., priority 2019, dated 2021):
pIC50: −log10 of the molar value.

The compounds below were run against T1, CD73 (Homo sapiens, UniProt P21589) (assay: Biochemical assay of CD73 inhibition (Malachite Green)). Details: CD73 0.3208 nM, AMP 15 μM, Tris-HCl pH 7.4, Malachite Green absorbance readout; read-out: CD73_Biochem.
T1 sequence (P21589 27-549): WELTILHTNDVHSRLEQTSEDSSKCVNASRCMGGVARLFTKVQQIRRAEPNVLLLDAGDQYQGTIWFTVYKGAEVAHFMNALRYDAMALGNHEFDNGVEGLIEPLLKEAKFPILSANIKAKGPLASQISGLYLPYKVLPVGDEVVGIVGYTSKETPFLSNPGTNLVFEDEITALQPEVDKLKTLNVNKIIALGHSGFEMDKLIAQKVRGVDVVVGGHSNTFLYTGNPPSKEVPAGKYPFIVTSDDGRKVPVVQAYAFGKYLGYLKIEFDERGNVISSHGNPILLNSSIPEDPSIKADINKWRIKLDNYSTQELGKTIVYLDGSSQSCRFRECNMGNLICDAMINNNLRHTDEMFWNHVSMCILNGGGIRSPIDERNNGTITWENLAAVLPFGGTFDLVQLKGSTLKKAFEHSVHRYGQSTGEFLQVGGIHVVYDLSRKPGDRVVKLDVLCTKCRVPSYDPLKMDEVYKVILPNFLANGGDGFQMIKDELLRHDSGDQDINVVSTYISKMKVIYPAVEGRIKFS
How it was run: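 CD73 (0.3208 nM) preincubated with compound 15 min at RT in 25 mM Tris-HCl pH 7.4, 5 mM MgCl2, 0.01% Brij-35, 0.01% BSA, then AMP (15 μM) added for 10 min at RT. Released phosphate detected by Malachite Green absorbance. IC50 from 10-point ½-log titrations starting at 100 μM, in duplicate.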

Row | pIC50 | SMILES
1 | ≥ 8.00 | O=P(O)(O)[C@@](CO)(COCc1nn[nH]n1)OC[C@H]1O[C@@H](n2ncc3c(NCC4CCC4)nc(Cl)nc32)[C@H](O)[C@@H]1O [Example 58, ((S)-1-((2H-tetrazol-5-yl)methoxy)-2-(((2R,3S,4R,5R)-5-(6-chloro-4-((cyclobutylmethyl)amino)-1H-pyrazolo[3,4-d]pyrimidin-1-yl)-3,4-dihydroxytetrahydrofuran-2-yl)methoxy)-3-hydroxypropan-2-yl)phosphonic acid]
2 | ≥ 8.00 | [2H]C([2H])([2H])OC[C@](COCc1nn[nH]n1)(OC[C@H]1O[C@@H](n2ncc3c(NC4CCCC4)nc(Cl)nc32)[C@H](O)[C@@H]1O)P(=O)(O)O [Example 59, ((S)-1-((2H-tetrazol-5-yl)methoxy)-2-(((2R,3S,4R,5R)-5-(6-chloro-4-(cyclopentylamino)-1H-pyrazolo[3,4-d]pyrimidin-1-yl)-3,4-dihydroxytetrahydrofuran-2-yl)methoxy)-3-(methoxy-d3)propan-2-yl)phosphonic acid]
3 | ≥ 8.00 | O=P(O)(O)C(CO)(COCc1nn[nH]n1)OC[C@H]1O[C@@H](n2ncc3c(N[C@@H]4CCc5ccccc54)nc(Cl)nc32)[C@H](O)[C@@H]1O (stereo partly drawn) [Example 60, (1-((2H-tetrazol-5-yl)methoxy)-2-(((2R,3S,4R,5R)-5-(6-chloro-4-(((R)-2,3-dihydro-1H-inden-1-yl)amino)-1H-pyrazolo[3,4-d]pyrimidin-1-yl)-3,4-dihydroxytetrahydrofuran-2-yl)methoxy)-3-hydroxypropan-2-yl)phosphonic acid]
